Data published in patent US20230382894A1, “CCR4 ANTAGONISTS” (CHEMOCENTRYX, INC., priority 2022, published 2023).

What was measured:
CCR4 [1] = target: T1, CCR4 (Homo sapiens, UniProt P51679); experiment: CEM cell chemotaxis (migration) assay to CCL22 (MDC) in 100% Fetal Bovine Serum (FBS); assay type: cell-based; settings: CEM cells in 100% FBS with 1% HEPEs; recombinant human CCL22 0.1 nM; 37° C. 60 minutes
T1 construct: CEM Cells Endogenous Express CCR4; endogenous in cells; host or cells: CEM cells
T1 sequence (P51679 1-360): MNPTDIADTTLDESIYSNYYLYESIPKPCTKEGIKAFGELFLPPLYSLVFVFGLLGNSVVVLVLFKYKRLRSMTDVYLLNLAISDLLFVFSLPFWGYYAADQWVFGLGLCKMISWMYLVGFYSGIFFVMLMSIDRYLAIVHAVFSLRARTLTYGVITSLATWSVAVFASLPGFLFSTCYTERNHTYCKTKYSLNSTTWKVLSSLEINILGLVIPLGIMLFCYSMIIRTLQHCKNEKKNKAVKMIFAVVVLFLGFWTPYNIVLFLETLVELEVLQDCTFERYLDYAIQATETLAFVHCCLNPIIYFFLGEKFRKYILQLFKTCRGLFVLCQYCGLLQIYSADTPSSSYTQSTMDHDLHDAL
Summary of the method: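 Endogenously CCR4-expressing CEM cells in 100% FBS with 1% HEPES were preincubated with serially diluted compound (top final 10 μM) and allowed to migrate through 5 μm polycarbonate membranes toward 0.1 nM human CCL22 (EC50) for 60 min at 37 °C. Migrated cells were quantified by CyQUANT fluorescence.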

CCR4 [2] = target: T1, CCR4; experiment: CEM cell chemotaxis (migration) assay to CCL22 (MDC) in HBSS buffer with 0.1% BSA; assay type: cell-based; settings: CEM cells in HBSS with 0.1% BSA; recombinant human CCL22 0.1 nM; 37° C. 60 minutes
From the text: CEM Cells Endogenous Express CCR4
A chemotaxis assay can be used to determine the efficacy of potential receptor antagonists at blocking the migration mediated through chemokine receptors, such as CCR4. This assay is routinely performed using the ChemoTX® microchamber system with a 5 μm pore-sized polycarbonate membrane.
HBSS: CEM Cells are collected by centrifugation at 400×g at room temperature, then suspended at 5 million/ml in Hanks' Balanced Salt Solution (HBSS) buffer with 0.1% BSA. The compound being tested is serially diluted from a maximum final concentration of 10 μM (or an equivalent volume of its solvent (DMSO)) and is then added to the cell/buffer mixture. Separately, recombinant human CCL22 (MDC) at its EC50 concentration (0.1 nM) is placed in the lower wells of the ChemoTX® plate. The 5-μm (pore size) polycarbonate membrane was placed onto the plate, and 20 μL of the cell/compound mixture is transferred onto each well of the membrane. The plates are incubated at 37° C. for 60 minutes, after which the polycarbonate membranes are removed and 5 μl of the DNA-intercalating dye CyQUANT (Invitrogen, Carlsbad, CA) is added to the lower wells. The amount of fluorescence, corresponding to the number of migrated cells, is measured using a Spectrafluor Plus plate reader (TECAN, San Jose, CA).

Row | SMILES | IC50 (CCR4 [1]) [nM] | IC50 (CCR4 [2]) [nM]
1 | C[C@@H](Nc1nc(N2CCN(S(=O)(=O)CCN(C)C)CC2)ncc1Cl)c1ccc(Cl)cc1Cl [Example 1.016] | 100 to 1000 | < 100
2 | C[C@@H]1CN(c2ncc(Cl)c(N[C@H](C)c3ccc(Cl)cc3Cl)n2)[C@@H](C)CN1C1CCCN(CCC(=O)O)C1 (stereo partly drawn) [Example 1.017] | < 100 | < 100
3 | C[C@@H]1CN(c2ncc(Cl)c(N[C@H](C)c3ccc(Cl)cc3Cl)n2)CCN1C(=O)c1c[nH]c(=O)n(C)c1=O [Example 1.018] | > 1000 | > 1000
4 | C[C@@H]1CN(c2ncc(Cl)c(N[C@H](C)c3ccc(Cl)cc3Cl)n2)[C@@H](C)CN1C(=O)[C@H]1CCCN1CC(=O)O [Example 1.019] | 100 to 1000 | 100 to 1000
5 | C[C@@H](Nc1nc(C2=CCN(C(=O)CN(C)C)CC2)ncc1Cl)c1ccc(Cl)cc1Cl [Example 1.020] | < 100 | < 100
6 | C[C@@H](Nc1nc(N2CCC(C3CNC3)CC2)ncc1Cl)c1ccc(Cl)cc1Cl [Example 1.021] | < 100 | < 100
7 | C[C@@H](Nc1nc(N2CCN(C(=O)C3CCN(C)C3)CC2)ncc1Cl)c1ccc(Cl)cc1Cl (stereo partly drawn) [Example 1.022] | < 100 | < 100
8 | C[C@@H](Nc1nc(N2CCN(C(=O)[C@H]3C[C@H](O)CN3)CC2)ncc1Cl)c1ccc(Cl)cc1Cl [Example 1.023] | < 100 | < 100
9 | C[C@@H](Nc1nc(N2CCN(C(=O)[C@H]3CCCN3C)CC2)ncc1Cl)c1ccc(Cl)cc1Cl [Example 1.024] | < 100 | < 100
10 | C[C@@H](Nc1nc(N2CCC(C(=O)N(C)CCN(C)C)CC2)ncc1Cl)c1ccc(Cl)cc1Cl [Example 1.025] | < 100 | < 100
11 | C[C@@H](Nc1nc(N2CCC(C(=O)NCCN(C)C)CC2)ncc1Cl)c1ccc(Cl)cc1Cl [Example 1.026] | < 100 | < 100
12 | C[C@@H](Nc1nc(C2=CCN(C(=O)[C@H]3CCCN3)CC2)ncc1Cl)c1ccc(Cl)cc1Cl [Example 1.027] | < 100 | < 100
13 | C[C@@H](Nc1nc(N2CC[C@@H](NC(=O)[C@H]3CCCN3)[C@@H](O)C2)ncc1Cl)c1ccc(Cl)cc1Cl [Example 1.028] | < 100 | < 100
14 | C[C@@H](Nc1nc(N2CC[C@H](NC(=O)[C@H]3CCCN3)C2)ncc1Cl)c1ccc(Cl)cc1Cl [Example 1.029] | < 100 | < 100
15 | C[C@@H](Nc1nc(N2CCN(C(=O)[C@H]3CCCN3)C(C)(C)C2)ncc1Cl)c1ccc(Cl)cc1Cl [Example 1.030] | 100 to 1000 | > 1000
16 | C[C@@H](Nc1nc(N2CC3CC2CN3C(=O)[C@H]2CCCN2)ncc1Cl)c1ccc(Cl)cc1Cl (stereo partly drawn) [Example 1.031] | 100 to 1000 | 100 to 1000
17 | C[C@@H](Nc1nc(N2CCN(C(=O)C[C@H]3CCCN3)CC2)ncc1Cl)c1ccc(Cl)cc1Cl [Example 1.032] | < 100 | < 100

Row | SMILES | IC50 (CCR4 [1]) [nM] | IC50 (CCR4 [2]) [nM]
18 | C[C@@H](Nc1nc(N2CCN(C(=O)[C@H]3CCN3)CC2)ncc1Cl)c1ccc(Cl)cc1Cl [Example 1.033] | < 100 | < 100
19 | C[C@@H]1CN(c2ncc(Cl)c(N[C@H](C)c3ccc(Cl)cc3Cl)n2)[C@@H](C)CN1C(=O)[C@H]1CCCN1 [Example 1.034] | < 100 | < 100
20 | C[C@@H](Nc1nc(N2CCC(C3CCCN(CCC(=O)O)C3)CC2)ncc1Cl)c1ccc(Cl)cc1Cl (stereo partly drawn) [Example 1.035] | < 100 | < 100
21 | C[C@@H]1CN(c2ncc(Cl)c(N[C@H](C)c3ccc(Cl)cc3Cl)n2)CCN1C(=O)N1CCNCC1 [Example 1.036] | > 1000 | > 1000
22 | C[C@@H](Nc1nc(N2CCN(C(=O)C3(C)CNC3)CC2)ncc1Cl)c1ccc(Cl)cc1Cl [Example 1.037] | 100 to 1000 | 100 to 1000
23 | C[C@@H]1CN(C(=O)[C@H]2CCCN2)CCN1c1ncc(Cl)c(N[C@H](C)c2ccc(Cl)cc2Cl)n1 [Example 1.038] | < 100 | < 100
24 | C[C@@H](Nc1nc(N2CCC(NC(=O)[C@H]3CCCN3)CC2)ncc1Cl)c1ccc(Cl)cc1Cl [Example 1.039] | < 100 | < 100
25 | C[C@@H](Nc1nc(N2CCN(C(=O)C(C)(C)N)CC2)ncc1Cl)c1ccc(Cl)cc1Cl [Example 1.040] | < 100 | < 100
26 | C[C@@H](Nc1nc(N2CCN(C(=O)CN(C)C)CC2)ncc1Cl)c1ccc(Cl)cc1Cl [Example 1.041] | < 100 | < 100
27 | C[C@@H]1CN(c2ncc(Cl)c(N[C@H](C)c3ccc(Cl)cc3Cl)n2)CCN1C(=O)[C@H]1CCCN1 [Example 1.042] | < 100 | < 100
28 | Cc1nc(N2CCN(C(=O)[C@H]3CCCN3)[C@H](CO)C2)nc(N[C@H](C)c2ccc(Cl)cc2Cl)c1Cl [Example 1.043] | < 100 | < 100
29 | C[C@@H](Nc1nc(N2CCN(C(=O)[C@H]3CCCCN3)CC2)ncc1Cl)c1ccc(Cl)cc1Cl [Example 1.044] | < 100 | < 100
30 | C[C@@H](Nc1nc(N2CCC(C3CCCNC3)CC2)ncc1Cl)c1ccc(Cl)cc1Cl (stereo partly drawn) [Example 1.045] | < 100 | < 100
31 | C[C@@H](Nc1nc(N2CCN(C(=O)[C@H]3CCCN3CCO)CC2)ncc1Cl)c1ccc(Cl)cc1Cl [Example 1.046] | < 100 | < 100
32 | C[C@@H](Nc1nc(N2CCC(C3CCCN(CCO)C3)CC2)ncc1Cl)c1ccc(Cl)cc1Cl (stereo partly drawn) [Example 1.047] | < 100 | < 100
33 | C[C@@H](Nc1nc(C2=CCN([C@H]3CCCN(CCO)C3)CC2)ncc1Cl)c1ccc(Cl)cc1Cl [Example 1.058] | < 100 | < 100

Now from value to compound:

Row | IC50 (CCR4 [1]) [nM] | IC50 (CCR4 [2]) [nM] | SMILES
34 | < 100 | < 100 | C[C@@H](Nc1nc(N2CCN(C(=O)[C@H]3CCCN3CCC(=O)O)CC2)ncc1Cl)c1ccc(Cl)cc1Cl [Example 1.048]
35 | < 100 | < 100 | Cc1nc(N2CCN(C(=O)[C@H]3CCCN3)CC2)nc(N[C@H](C)c2ccc(Cl)cc2Cl)c1Cl [Example 1.049]
36 | > 1000 | 100 to 1000 | C[C@@H](Nc1nc(N2CCN(C(=O)[C@@H]3CCCN3C(=O)OC(C)(C)C)CC2)ncc1Cl)c1ccc(Cl)cc1Cl [Example 1.050]
37 | 100 to 1000 | 100 to 1000 | C[C@@H](Nc1nc(N2CCN(C(=O)[C@H]3CCCN3C(=O)OC(C)(C)C)CC2)ncc1Cl)c1ccc(Cl)cc1Cl [Example 1.051]
38 | < 100 | < 100 | C[C@@H](Nc1nc(N2CCN(C(=O)[C@@H]3CCCN3)CC2)ncc1Cl)c1ccc(Cl)cc1Cl [Example 1.052]
39 | < 100 | < 100 | C[C@@H](Nc1nc(N2CCN(C(=O)[C@H]3CCCN3)CC2)ncc1Cl)c1ccc(Cl)cc1Cl [Example 1.053]
40 | < 100 | < 100 | C[C@@H](Nc1nc(N2CCN(C3CCCN(CCC(=O)O)C3)CC2)ncc1Cl)c1ccc(Cl)cc1Cl (stereo partly drawn) [Example 1.054]
41 | < 100 | < 100 | C[C@@H](Nc1nc(N2CCN(C3CCCNC3)CC2)ncc1Cl)c1ccc(Cl)cc1Cl (stereo partly drawn) [Example 1.055]
42 | < 100 | < 100 | C[C@@H](Nc1nc(C2=CCN([C@H]3CCCN(CCC(N)=O)C3)CC2)ncc1Cl)c1ccc(Cl)cc1Cl [Example 1.056]
43 | < 100 | < 100 | C[C@@H](Nc1nc(C2=CCN([C@H]3CCCN(CCC(=O)O)C3)CC2)ncc1Cl)c1ccc(Cl)cc1Cl [Example 1.057]
44 | < 100 | < 100 | C[C@@H](Nc1nc(N2CCN(C(=O)N(C)C3CCNC3)CC2)ncc1Cl)c1ccc(Cl)cc1Cl (stereo partly drawn) [Example 1.059]
45 | < 100 | < 100 | C[C@@H](Nc1nc(N2CCC(NC(=O)[C@H]3CCN(C)C3)CC2)ncc1Cl)c1ccc(Cl)cc1Cl [Example 1.060]
46 | < 100 | < 100 | C[C@@H](Nc1nc(N2CCC(NC(=O)[C@H]3CCNC3)CC2)ncc1Cl)c1ccc(Cl)cc1Cl [Example 1.061]
47 | > 1000 | > 1000 | CC(C)N(C(=O)C1CCNC1)C1CCN(c2ncc(Cl)c(N[C@H](C)c3ccc(Cl)cc3Cl)n2)CC1 (stereo partly drawn) [Example 1.062]
48 | < 100 | < 100 | C[C@@H](Nc1nc(N2CCN(C3CCCN(CC(=O)O)C3)CC2)ncc1Cl)c1ccc(Cl)cc1Cl (stereo partly drawn) [Example 1.063]
